Assays:
[1] = Transient Transfection Assay: In a transient set-up, a Huh-7 lunet hepatoma cell line was transiently transfected with an autonomously replicating RNA encoding a bi-cistronic expression construct. This construct comprises a firefly luciferase reporter gene preceding the NS3-NS5B subgenomic region of HCV (genotype 1a H77 or 1b Con1). Translation of the HCV subgenomic region is mediated by an internal ribosome entry site of encephalomyocarditis virus. The construct is furthermore flanked by 5' and 3' untranslated regions of HCV (genotype 1a H77 or 1b Con 1, respectively), which allow for replication of the RNA. In addition to the wild-type constructs, site-directed mutations were introduced into the transient HCV genotype 1b replicon in the gene encoding for the non-structural protein 5A (NS5A). More precisely, amino acid residues 28, 30, 31 and 93 in NS5A were independently altered. Cells were plated in 384 well plates in the presence of test and control compounds, which were added in various concentrations. Following an incubation of two days, replication of the HCV subgenomic replicon RNA was measured by assaying luciferase activity (using standard luciferase assay substrates and reagents and a Perkin Elmer ViewLux™ ultraHTS microplate imager).; type: cell-based
[2] = Stable Transfection Assay: The assay utilized the stably transfected cell line Huh-7 luc/neo (hereafter referred to as Huh-Luc). This cell line harbors an RNA encoding a bicistronic expression construct comprising the wild type NS3-NS5B regions of HCV type 1b translated from an Internal Ribosome Entry Site (IRES) from encephalomyocarditis virus (EMCV), preceded by a reporter portion (FfL-luciferase), and a selectable marker portion (neoR, neomycine phosphotransferase). The construct is flanked by 5' and 3' NTRs (non-translated regions) from HCV type 1b. Continued culture of the replicon cells in the presence of G418 (neoR) is dependent on the replication of the HCV RNA. The stably transfected replicon cells that replicate HCV RNA autonomously and to high levels, encoding inter alia luciferase, were used for screening the antiviral compounds.

Compound	EC50 [1] [pM]	EC50 [2] [pM]
COC(=O)N[C@H](C(=O)N1CCC[C@H]1c1ncc(-c2ccc3cc(-c4ccc5nc([C@@H]6CCCN6C(=O)[C@@H](NC(=O)OC)[C@@H](C)OC)[nH]c5c4)ccc3c2)[nH]1)C(C)C	7	–
COC(=O)N[C@H](C(=O)N1CCC[C@H]1c1nc2ccc(-c3ccc4cc(-c5cnc([C@@H]6CCCN6C(=O)[C@@H](NC(=O)OC)[C@@H](C)OC)[nH]5)ccc4c3)cc2[nH]1)C(C)C	–	6
